Source: patent publication US10131664B2 (Celgene Quanticel Research, Inc., priority 2013, dated 2018)
Where a name gives a salt, the structure may show the parent alone. Read-outs that look alike come from different tables or passages of the source.

Columns and labels:
[1] = biological target: full-length human LSD1 (Homo sapiens (Human), UniProt O60341); test: In vitro enzyme inhibition assay LSD-1 (TR-FRET); format: biochemical; conditions: TR-FRET, 0.1 nM LSD1, 50 nM H3K4me1-biotin peptide, 2 μM FAD, pH7.3; read-out: LSD1 IC50
Experimental: This assay determines the ability of a test compound to inhibit LSD1 demethylase activity.
The enzymatic assay of LSD1 activity is based on Time Resolved-Fluorescence Resonance Energy Transfer (TR-FRET) detection.
The ability of the compounds disclosed herein to inhibit LSD1 activity was quantified and the respective IC50 value was determined. Table 5 provides the IC50 values of various substituted heterocyclic compounds disclosed herein.

[2] = test system: THP-1 (AML) cells; test: LSD1 CD11b cellular assay (flow cytometry); format: cell-based; conditions: read-out: Cellular IC50
Summary of the method: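 THP-1 AML cells treated with serially diluted compound (0.2% DMSO final) for 4 days at 37 °C, 5% CO2. CD11b expression measured by flow cytometry with DAPI staining; IC50 derived from percent CD11b-positive cells versus inhibitor concentration.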

[3] = Homo sapiens, 96 h, CD11b expression in THP-1 (AML) cells, flow cytometry, 4 days incubation

| SMILES | IC50 [1] | IC50 [2, 3] | IC50 ([2]; Homo sapiens, THP-1, 96 h) | IC50 ([2]; CD11b expression in THP-1 (AML) cells, flow cytometry, 4 days incubation) |
| --- | --- | --- | --- | --- |
| N#Cc1ccc(-c2nc(N3CCC(N)CC3)ncc2C#CC2(O)CCOC2)cc1F (stereo not shown) [Example 94, 4-[2-(4-aminopiperidin-1-yl)-5-[2-(3-hydroxyoxolan-3-yl)ethynyl]pyrimidin-4-yl]-2-fluorobenzonitrile] | < 100 nM | < 100 nM | – | – |
| N#Cc1ccc(-c2nc(N3CCC4(CCNC4)CC3)ncc2-c2cnn(CC(F)(F)F)c2)cc1 [Example 62, 4-[2-(2,8-diazaspiro[4.5]decan-8-yl)-5-[1-(2,2,2-trifluoroethyl)pyrazol-4-yl]pyrimidin-4-yl]benzonitrile] | < 100 nM | < 100 nM | – | – |
| Cn1cnc2cc(-c3cnc(N4CCC(N)CC4)nc3-c3ccc(C#N)c(F)c3)c(F)c(F)c21 [Example 132, 4-[2-(4-aminopiperidin-1-yl)-5-(6,7-difluoro-1-methylbenzimidazol-5-yl)pyrimidin-4-yl]-2-fluorobenzonitrile] | < 100 nM | < 100 nM | – | – |
| Cn1nnc2cc(-c3cnc(N4CCC(N)CC4)nc3-c3ccc(C#N)c(F)c3)c(F)cc21 [Example 105, 4-[2-(4-aminopiperidin-1-yl)-5-(6-fluoro-1-methylbenzotriazol-5-yl)pyrimidin-4-yl]-2-fluorobenzonitrile] | < 100 nM | < 100 nM | – | – |
| N#Cc1ccc(-c2nc(NC[C@H]3CCNC3)ncc2-c2ccc(C(F)(F)F)cc2)cc1 [Example 25, 4-(2-{[(3S)-pyrrolidin-3-ylmethyl]amino}-5-[4-(trifluoromethyl)phenyl]pyrimidin-4-yl)benzonitrile] | < 100 nM | 100 to 1000 nM | – | – |
| CNc1nc(N2CCC(N)CC2)nc(-c2ccc(C#N)c(F)c2)c1-c1cnc(N(C)C)nc1 [Example 168, 4-[2-(4-aminopiperidin-1-yl)-5-[2-(dimethylamino)pyrimidin-5-yl]-6-(methylamino)pyrimidin-4-yl]-2-fluorobenzonitrile] | < 100 nM | < 100 nM | – | – |
| Cn1ncc2nc(-c3cnc(N4CCC(N)CC4)nc3-c3ccc(C#N)cc3)ccc21 [Example 67, 4-[2-(4-aminopiperidin-1-yl)-5-(1-methylpyrazolo[4,3-b]pyridin-5-yl)pyrimidin-4-yl]benzonitrile] | < 100 nM | 100 to 1000 nM | – | – |
| N#Cc1ccc(-c2nc(N3CCC4CNCC4CC3)ncc2-c2ccc3cn[nH]c3c2)cc1 (stereo not shown) [Example 117, 4-[2-(2,3,3a,4,5,7,8,8a-octahydro-1H-pyrrolo[3,4-d]azepin-6-yl)-5-(1H-indazol-6-yl)pyrimidin-4-yl]benzonitrile] | < 100 nM | < 100 nM | – | – |
| Cc1ccc(-c2cc(NC[C@@H]3CCNC3)nn2-c2ccc(C#N)cc2)cc1 [Example 45, 4-[5-(4-methylphenyl)-3-[[(3R)-pyrrolidin-3-yl]methylamino]pyrazol-1-yl]benzonitrile] | < 100 nM | 100 to 1000 nM | – | – |
| Cc1ccc(-c2nc3ccn(C[C@H]4CNCCO4)c3cc2-c2ccc(C#N)cc2)cc1 [Example 10, 4-[5-(4-methylphenyl)-1-[[(2R)-morpholin-2-yl]methyl]pyrrolo[3,2-b]pyridin-6-yl]benzonitrile] | < 100 nM | 1000 to 10000 nM | – | – |
| Cc1ccc(-c2cnc(OC[C@@H]3CCNC3)nc2-c2ccc(C#N)cc2)cc1 [Example 20, 4-[5-(4-methylphenyl)-2-[(3R)-pyrrolidin-3-ylmethoxy]pyrimidin-4-yl]benzonitrile] | < 100 nM | 100 to 1000 nM | – | – |
| Cn1cnc2cc(-c3cnc(N4CCC(N)CC4)nc3-c3ccc(C#N)cc3)c(F)c(F)c21 [Example 126, 4-[2-(4-aminopiperidin-1-yl)-5-(6,7-difluoro-1-methylbenzimidazol-5-yl)pyrimidin-4-yl]benzonitrile] | < 100 nM | < 100 nM | – | – |
| Cn1ncc2cc(-c3cnc(N4CCC5CNCC5C4)nc3-c3ccc(C#N)cc3)ccc21 (stereo not shown) [Example 115, 4-[2-(1,2,3,3a,4,6,7,7a-octahydropyrrolo[3,4-c]pyridin-5-yl)-5-(1-methylindazol-5-yl)pyrimidin-4-yl]benzonitrile] | < 100 nM | < 100 nM | – | – |
| CNc1nc(N2CCCNCC2)nc(-c2ccc(C#N)cc2)c1-c1ccc2nn(C)cc2c1 [Example 172, 4-[2-(1,4-diazepan-1-yl)-5-(2-methyl-2H-indazol-5-yl)-6-(methylamino)pyrimidin-4-yl]benzonitrile] | < 100 nM | < 100 nM | – | – |
| Cc1ccc(-c2cnc(NC[C@H]3CCNC3)nc2-c2ccc(C#N)cc2)cc1 [Example 16, 4-[5-(4-methylphenyl)-2-{[(3S)-pyrrolidin-3-ylmethyl]amino}pyrimidin-4-yl]benzonitrile] | < 100 nM | < 100 nM | – | – |
| Cn1ncc2cc(-c3cnc(N4CCC(N)C(O)C4)nc3-c3ccc(C#N)c(F)c3)ccc21 (stereo not shown) [Example 101, 4-[2-(4-amino-3-hydroxypiperidin-1-yl)-5-(1-methylindazol-5-yl)pyrimidin-4-yl]-2-fluorobenzonitrile] | < 100 nM | < 100 nM | – | – |

| SMILES | IC50 [1] | IC50 [2, 3] | IC50 ([2]; Homo sapiens, THP-1, 96 h) | IC50 ([2]; CD11b expression in THP-1 (AML) cells, flow cytometry, 4 days incubation) |
| --- | --- | --- | --- | --- |
| Cn1nncc1C#Cc1cnc(N2CCC(N)CC2)nc1-c1ccc(C#N)c(F)c1 [Example 98] | < 100 nM | 100 to 1000 nM | – | – |
| N#Cc1ccc(-c2nc(N3CCC(N)CC3)ncc2-c2cnn(CC(F)(F)F)c2)cc1 [Example 61, 4-[2-(4-aminopiperidin-1-yl)-5-[1-(2,2,2-trifluoroethyl)pyrazol-4-yl]pyrimidin-4-yl]benzonitrile] | < 100 nM | < 100 nM | – | – |
| Cn1cc2ncc(-c3cnc(N4CCC(N)CC4)nc3-c3ccc(C#N)cc3)cc2n1 [Example 76, 4-[2-(4-aminopiperidin-1-yl)-5-(2-methylpyrazolo[4,3-b]pyridin-6-yl)pyrimidin-4-yl]benzonitrile] | < 100 nM | 100 to 1000 nM | – | – |
| Cc1ccc(-c2cc(NC[C@H]3[C@@H]4CNC[C@@H]43)nn2-c2ccc(C#N)cc2)cc1 [Example 47, 4-[3-[[(1S,5R)-3-azabicyclo[3.1.0]hexan-6-yl]methylamino]-5-(4-methylphenyl)pyrazol-1-yl]benzonitrile] | < 100 nM | 100 to 1000 nM | – | – |
| COc1ccc(-c2nc3ccn(C[C@@H]4CCNC4)c3cc2-c2ccc(C#N)c(F)c2)cc1 [Example 52, HCl salt] | < 100 nM | – | < 100 nM | – |
| N#Cc1ccc(-c2nc(N3CCC(N)CC3)ncc2-c2cnn(CC3CCOC3)c2)cc1 (stereo not shown) [Example 78, 4-[2-(4-aminopiperidin-1-yl)-5-[1-(oxolan-3-ylmethyl)pyrazol-4-yl]pyrimidin-4-yl]benzonitrile] | < 100 nM | 100 to 1000 nM | – | – |
| Cc1ccc(-c2cnc(N3CCC4CNCC4C3)nc2-c2ccc(C#N)cc2)cc1 (stereo not shown) [Example 22, 4-[5-(4-methylphenyl)-2-{octahydro-1H-pyrrolo[3,4-c]pyridin-5-yl}pyrimidin-4-yl]benzonitrile] | < 100 nM | < 100 nM | – | – |
| Cn1ncc2cc(-c3cnc(N4CCC(N)C(O)C4)nc3-c3ccc(C#N)c(F)c3)ccc21 (stereo not shown) [Example 104, 4-[2-(4-amino-3-hydroxypiperidin-1-yl)-5-(1-methylindazol-5-yl)pyrimidin-4-yl]-2-fluorobenzonitrile] | < 100 nM | – | – | < 100 nM |
| Cc1nc2cc(-c3cnc(N4CCC(N)CC4)nc3-c3ccc(C#N)c(F)c3)ccc2n1C [Example 138, 4-[2-(4-aminopiperidin-1-yl)-5-(1,2-dimethylbenzimidazol-5-yl)pyrimidin-4-yl]-2-fluorobenzonitrile] | < 100 nM | < 100 nM | – | – |
| CNC1CCN(c2ncc(-c3cnn(CC(F)(F)F)c3)c(-c3ccc(C#N)c(F)c3)n2)CC1 [Example 89, 2-fluoro-4-[2-[4-(methylamino)piperidin-1-yl]-5-[1-(2,2,2-trifluoroethyl)pyrazol-4-yl]pyrimidin-4-yl]benzonitrile] | < 100 nM | < 100 nM | – | – |
| CNc1nc(N2CCC(N)CC2)nc(-c2ccc(C#N)c(F)c2)c1-c1ccc2c(cnn2C)c1 [Example 161, 4-[2-(4-aminopiperidin-1-yl)-5-(l-methyl-1H-indazol-5-yl)-6-(methylamino)pyrimidin-4-yl]-2-fluorobenzonitrile] | < 100 nM | < 100 nM | – | – |
| Cc1nn(C)c2ccc(-c3cnc(N4CCC(N)CC4)nc3-c3ccc(C#N)c(F)c3)cc12 [Example 93, 4-[2-(4-aminopiperidin-1-yl)-5-(1,3-dimethylindazol-5-yl)pyrmidin-4-yl]-2-fluorobenzonitrile] | < 100 nM | < 100 nM | – | – |
| Cc1ccc(-c2cnc(N[C@@H]3C[C@H]4CNC[C@H]4C3)nc2-c2ccc(C#N)cc2)cc1 [Example 27, 4-(2-{[(3aR,5S,6aS)-octahydrocyclopenta[c]pyrrol-5-yl]amino}-5-(4-methylphenyl)pyrimidin-4-yl)benzonitrile] | 100 to 1000 nM | 100 to 1000 nM | – | – |
| Cc1c2cc(-c3cnc(N4CCC(N)CC4)nc3-c3ccc(C#N)c(F)c3)ccc2nn1C [Example 92, 4-[2-(4-aminopiperidin-1-yl)-5-(2,3-dimethylindazol-5-yl)pyrimidin-4-yl]-2-fluorobenzonitrile] | < 100 nM | < 100 nM | – | – |
| Cn1cc2cc(-c3cnc(N4CCNCC4)nc3-c3ccc(C#N)c(F)c3)ccc2n1 [Example 109, 2-fluoro-4-[5-(2-methylindazol-5-yl)-2-piperazin-1-ylpyrimidin-4-yl]benzonitrile] | < 100 nM | 100 to 1000 nM | – | – |
| Cn1cnc2cc(-c3cnc(N4CCC(N)CC4)nc3-c3ccc(C#N)c(F)c3)cnc21 [Example 136, 4-[2-(4-aminopiperidin-1-yl)-5-(3-methylimidazo[4,5-b]pyridin-6-yl)pyrimidin-4-yl]-2-fluorobenzonitrile] | < 100 nM | < 100 nM | – | – |
